Data taken from patent US20100137398A1, “USE OF HDAC INHIBITORS FOR THE TREATMENT OF GASTROINTESTINAL CANCERS” (NOVARTIS AG, priority 2007, published 2010).

Tests used:
[1] = tested on: 19 pancreatic cancer cell lines; experiment: Cell proliferation assays, panel of 19 pancreatic cancer cell lines, 6 days; type: cell-based; details: 6 days treatment
Experimental: A panel of 19 pancreatic cancer cell lines was independently assessed in cell proliferation assays. Cells were treated with DMSO vehicle control or varying concentrations of LBH589 for 6 days.

[2] = tested on: SU.86.86 pancreatic cancer cell line; experiment: Cell proliferation assay, pancreatic cancer cell lines; type: cell-based
Source text: (§1) The MTT is a colorimetric assay to determine the cell proliferation rate. The yellow tetrazolium MTT (3-(4, 5-dimethylthiazolyl-2)-2, 5-diphenyltetrazolium bromide) is reduced, by metabolically active cells, in part by the action of dehydrogenase enzymes, to generate reducing equivalents such as NADH and NADPH. The resulting intracellular purple formazan can be solubilized and quantified by spectrophotometric means. The signals produced is directly proportional to the cell numbers. Describing the MTT assay in detail, experiments were done using six-point or 9 point drug titrations in multi-well tissue culture dishes, with outer rows left empty. Cells were suspended in complete media at densities of between 10^3 and 10^4 cell/ml, respectively, and added per well. The appropriate medium (200 μl) was then added. Twenty-four hours later, 10 μl of MTS solution, were added to one plates to determine the activity at the time of compound addition (T0). This plate was incubated at 37° for 4 hours and the optical density was measured on a Molecular Devices Thermomax at 490 nm using the Softmax program. The T0 plate served as a reference for initial activity at the beginning of the experiment.
(§2) Compound addition began 24 hours after seeding, the same time as the T0 determination. Serial dilutions at 4-fold 2-fold, 1-fold, 0.5-fold, 0.25-fold and 0.125-fold of previously determined IC50 values of each compound were made in a 96-deep well plate with the highest concentrations on the edge of the plate. Each of the six dilutions were added in triplicate and complete medium was added to the empty outer rows, without cells. The compounds were added to the plates singly or in combination with Compound III (LBH589). The plates were incubated at 37° C. for 72 hours from seeding. The MTS solution was added (as for the T0 plate) and read four hours later. In order to analyze the data, the average value of media alone (background) was subtracted from each experimental well and the triplicate values were averaged for each compound dilution. The following formulas were used to calculate percent growth.
(§3) If X>T0, % Growth=100×(X−T0)/(GC−T0))
(§4) If X<T0, % Growth=100×(X−T0)/T0)
(§5) T0=average value of T0 minus background
(§6) GC=average value of untreated cells (in triplicate) minus background X=average value, of compound treated cells (in triplicate) minus background
(§7) IC50 the concentration of LBH589 required to inhibit cell growth by 50% and LD50s the concentration required to reduce cell number (kill cells) to 50% the original innoculum were determined. The “% Growth” was plotted against compound concentration and used to calculate IC50s and LD50s, employing the user-defined spline function in Microsoft Excel.
(§8) Pancreatic cancer cell lines were treated with DMSO vehicle control or varying concentrations of LBH589 for 3 days. Cell proliferation was measured on the day of cell plating and on the third day post-treatment. IC50 and LD50 values were calculated as described above.

[3] = tested on: Capan1 pancreatic cancer cell line; experiment: as above; type: cell-based
Source text: as §1, §2, §3, §4, §5, §6, §7, §8

[4] = tested on: MiaPaCa2 pancreatic cancer cell line; experiment: as above; type: cell-based
Source text: as §1, §2, §3, §4, §5, §6, §7, §8

[5] = tested on: AsPC1 pancreatic cancer cell line; experiment: as above; type: cell-based
Source text: as §1, §2, §3, §4, §5, §6, §7, §8

[6] = tested on: Panc10.05 pancreatic cancer cell line; experiment: as above; type: cell-based
Source text: as §1, §2, §3, §4, §5, §6, §7, §8

[7] = tested on: Panc1 pancreatic cancer cell line; experiment: as above; type: cell-based
Source text: as §1, §2, §3, §4, §5, §6, §7, §8

[8] = tested on: HCT116 colon cancer cells; experiment: HCT116 xenograft model, tumor growth; type: in vivo, Female athymic nude mice
Experimental: Female athymic nude mice were implanted subcutaneously with HCT116 colon cancer cells. […] Mice were treated with LBH589 at 5, 10 or 20 mg/kg intravenously (iv) 5 times a week for 3 weeks or 75 mg/kg of 5-Fluorouracil intravenously once a week for 3 weeks. Animals were calipered weekly. Compound activity was determined as the percent change in tumor volume of treated animals over control animals (% T/C). The percentage of regression was determined as the percent change in the final tumor volume at the end of the study over the starting tumor volume. […] The results are described in FIG. 1.

[9] = tested on: 36 colon cancer cell lines; experiment: Monolayer growth inhibition assay, panel summary; type: cell-based; details: 3 days treatment
Source text: as §1, with “Twenty-four hours later, 10 μl of MTS solution, were added to one plates to determine the activity at the time of compound addition (T0).” left out, “The T0 plate served as a reference for initial activity at the beginning of the experiment.” left out
(§9) Compound addition began 24 hours after seeding, the same time as the T0 determination. […] The MTS solution was added (as for the T0 plate) and read four hours later. […]
Colon cancer cell lines were treated with DMSO vehicle control or varying concentrations of LBH589 for 3 days. Cell proliferation was measured on the day of cell plating and on the third day post-treatment. IC50 and LD50 values were calculated as described above.

[10] = tested on: Colo205 colon cancer xenograft; experiment: Colo205 colon cancer xenograft model, tumor growth inhibition and delay; type: in vivo, Female athymic nude mice; details: LBH589 30 mg/kg iv Mon/Wed/Fri for 3 weeks, 5-FU 75 mg/kg ip once a week for 3 weeks, or both
Experimental: Female athymic nude mice-were implanted subcutaneously with Col6205 colon cancer cells. When tumors reached a medan tumor volume of 220 mm3, mice were randomized into groups of 10 mice. Mice were treated with LBH589 at 30 mg/kg intravenously on Monday, Wednesday, Friday per week for 3 weeks, 75 mg/kg of 5-Fluorouracil intraperitoneally once a week for 3 weeks, or combination of the two agents. For tumor growth inhibition (FIG. 2A), compound activity was measured as the percent change in tumor volume of treated animals over control animals (% T/C). The percentage of regression was determined as the percent change in the final tumor volume at the end of the study over the starting tumor volume. For tumor growth delay (FIG. 2B), compound activity was measured as the change in median calculated time to the study end point (TTE), which was predefined as tumor volume of 1000 mm^3.

[11] = tested on: 12 pancreatic cancer cell lines; experiment: Cell proliferation assay, panel summary; type: cell-based; details: 3 days treatment
Source text: as §1, with “Twenty-four hours later, 10 μl of MTS solution, were added to one plates to determine the activity at the time of compound addition (T0).” left out, “The T0 plate served as a reference for initial activity at the beginning of the experiment.” left out
as §9, §8

Cc1[nH]c2ccccc2c1CCNCc1ccc(/C=C/C(=O)NO)cc1 [LBH589, N-hydroxy-3-[4-[[[2-(2-methyl-1H-indol-3-yl)ethyl]-amino]methyl]phenyl]-2E-2-propenamide]
LD50 ([1]; 18 of the 19 pancreatic cancer cell lines): < 1 µM | IC50 values ([1]; all 19 pancreatic cancer cell lines): low nanomolar | IC50 ([2]; Homo sapiens, 72 h, SU.86.86, 3 days treatment): 51 nM | LD50 ([2]; SU.86.86, 3 days, concentration reducing cell number to 50% of original inoculum): 170.4 nM | LD50 ([3]; Capan1, 3 days, concentration reducing cell number to 50% of original inoculum): 191.5 nM | IC50 ([3]; Homo sapiens, CAPAN-1, 72 h, Capan1, 3 days treatment): 55.6 nM | IC50 ([4]; Homo sapiens, MIA PaCa-2, 72 h, MiaPaCa2, 3 days treatment): 14.1 nM | LD50 ([4]; MiaPaCa2, 3 days, concentration reducing cell number to 50% of original inoculum): 59.5 nM | LD50 ([5]; AsPC1, 3 days, concentration reducing cell number to 50% of original inoculum): 372.4 nM | IC50 ([5]; Homo sapiens, 72 h, AsPC1, 3 days treatment): 25.1 nM | IC50 ([6]; Homo sapiens, Panc1005, 72 h, Panc10.05, 3 days treatment): 31.8 nM | LD50 ([6]; Panc10.05, 3 days, concentration reducing cell number to 50% of original inoculum): 282.4 nM | IC50 ([7]; Homo sapiens, PANC-1, 72 h, Panc1, 3 days treatment): 18.9 nM | LD50 ([7]; Panc1, 3 days, concentration reducing cell number to 50% of original inoculum): 175.4 nM | % T/C (percent change in tumor volume of treated over control animals) ([8]; 5 mg/kg intravenously 5 times a week for 3 weeks): 17% | % T/C (percent change in tumor volume of treated over control animals) ([8]; 10 mg/kg intravenously 5 times a week for 3 weeks): 6% | tumor regression (percent change in final tumor volume over starting tumor volume) ([8]; 20 mg/kg intravenously 5 times a week for 3 weeks): 8% | IC50 values ([9]; all 36 colon cancer cell lines): low nanomolar | LD50 ([9]; great majority of the colon cancer cell lines (n=31)): < 1 µM | tumor growth inhibition (TGI) and tumor growth delay (TGD) [10]: led to tumor growth inhibition (TGI) and tumor growth delay (TGD) | Median TTE (time to study end point, tumor volume of 1000 mm^3) ([10]; vehicle 39.5 days): 32.9 days | IC50 values ([11]; all 12 pancreatic cancer cell lines): low nanomolar | LD50 ([11]; majority of the pancreatic cancer cell lines (n=10)): < 1 µM
